These results are taken from patent publication US20190300845A1, “SEQUENTIAL ADDITION OF MOLECULAR GERMINANTS TO BACTERIAL SPORES” (NOVOZYMES BIOAG A/S, priority 2016, published 2019).

In assay [1] the test system is spores from Bacillus pumilus strain SB3189. As to the kind of experiment: Germinant testing by decrease in relative OD580. In kind it is cell-based. The following applies: substance alone, at a concentration of 3 mM.
Assay [2] relates to spores from Bacillus megaterium strain SB3112. As to the kind of experiment: Germinant testing by decrease in relative OD580. The format is cell-based. To be noted: amino acid along with KBr and D-glucose; each 3 mM.
In assay [3] the test system is Bacillus subtilis strain SB3086 spores. As to the kind of experiment: Sequential germinant addition, germination by dipicolinic acid (DPA) release (Tb-DPA fluorescence). In kind it is cell-based. The protocol:
Bacterial spores from Bacillus subtilis strain SB3086 were prepared as described in the first paragraph of Example 1. The spore preparations were washed in sterile 4° C. water by centrifugation (10,000×g, 1 minute), aspirating the supernatant from the pellet, and suspending the spore pellet in water. This was performed three consecutive times. Optical densities of washed spore preparations were measured in sterile water at 4° C. using a Synergy H4 Multi-Mode Reader (Bio-Tek). The spore preparations were set to 5 OD600 units per ml. By phase-contrast microscopy, 99% of the particles in the samples appeared to be ungerminated spores.
The spores were then treated with 1 mM of L-alanine for 24 hours at 4° C. […] In one experiment, spores that had been treated with 1 mM L-alanine for 24 hours were washed in water to remove the L-alanine. Negative controls were not treated with L-alanine. Spores to be used as positive controls were boiled for 2 hours to release dipicolinic acid (see below).
(§1) Germination of spores in these studies was determined by measuring dipicolinic acid (DPA). DPA is about 10% of the mass of endospores, which is generally released when germination occurs. Boiling spores generally releases all of the DPA (used as a positive control). DPA release was detected using terbium chloride (TbCl3), as described below.
(§2) To perform the germination assays, 30 μl of spores were added to wells of a 96-well flat-bottom microtiter plate. Subsequently, 35 μl of a 250 μM TbCl3 stock was added. At time 0, 85 μl of a D-fructose solution was added, to give a final concentration of 10 mM D-fructose. The solution was mixed by pipetting, the microtiter plate was placed into a plate reader (Synergy H4 Multi-Mode Reader, Bio-Tek), and the sample wells were measured for presence of a fluorescent Tb-DPA product over time. Tb-DPA is excited at 270 nm and emits at 545 nm. All experimental samples were tested in triplicate. Baseline controls for each sample were generated by omitting L-alanine and these were performed in duplicate. All sample wells were measured immediately after D-fructose was added (time 0) and then over time. For each time point, the data were normalized to values for the spores that had been boiled for two hours to force 100% release of DPA from the spores.

For assay [4], the system named is Bacillus pumilus strain SB3189 spores. Described as above. In kind it is cell-based. The protocol: as §1, §2
The experiment was generally performed as described in Example 3. SB3189 spores were treated with various concentrations of L-alanine (0.0 mM, 0.5 mM, 1.0 mM, 2.0 mM, 3.0 mM, 4.0 mM, 5.0 mM, 6.0 mM, 7.0 mM, 8.0 mM, 9.0 mM, or 10.0 mM) for 24 hours at 4° C. […] D-fructose (10 mM) was then added to the L-alanine-treated spores (this was time 0) and DPA levels were measured over time.

Assay [5] has as its system spores from Bacillus amyloliquefaciens strain SB3615. As to the kind of experiment: Germinant testing by decrease in relative OD580.
For assay [6], the system named is Bacillus megaterium strain SB3112 spores. As to the kind of experiment: KBr pretreatment, germination by dipicolinic acid (DPA) release (Tlag, Gmax). In kind it is cell-based. How it is done:
as §1, §2
These studies were generally performed as described in Example 3. SB3112 spores, heat-activated or not heat-activated (not heat-activated are called “native”), were treated with 0.5, 3.0, or 10.0 mM KBr overnight at either 4° or 22° C. […] The time at which the subsequent addition was made to the spores was considered time 0. DPA concentration was measured over time.
To facilitate comparison of the different samples, values for Tlag and Gmax were calculated for each spore treatment. Tlag is the time after exposure to germinants that a population of spores begins to rapidly release DPA into the environment. Tlag indicates, in part, how rapidly a population of spores responds to germinants. Gmax is the maximum percentage of DPA that a sample releases during an experiment, divided by the DPA released by the sample when boiled. Gmax is proportional to the percentage of spores in a population that germinates.

As for `N[C@@H](CS)C(=O)O` [L-cysteine], the “Germination of spores (decrease in relative OD580)” value in assay [1] is given as “None”.
Turning to `O=C(O)[C@@H]1CCCN1` [L-proline], in assay [2], the “Germination of spores (decrease in relative OD580)” value is “caused germination of the spores”.
Regarding `N[C@@H](Cc1c[nH]cn1)C(=O)O` [L-histidine], the “Germination of spores (decrease in relative OD580)” value in assay [2] was “caused germination of the spores”.
Same read-out and setting: for `CC[C@H](C)[C@H](N)C(=O)O` [L-isoleucine] the value was “caused germination of the spores”; for `CC(C)C[C@H](N)C(=O)O` [L-leucine], “caused germination of the spores”.
For `OC[C@H]1O[C@@](CO)(O[C@H]2O[C@H](CO)[C@@H](O)[C@H](O)[C@H]2O)[C@@H](O)[C@@H]1O` [sucrose], the “Germination of spores (decrease in relative OD580)” value in assay [1] is recorded as “None”.
With `N[C@@H](Cc1ccccc1)C(=O)O` [L-phenylalanine], in assay [2], the “Germination of spores (decrease in relative OD580)” value is listed as “caused germination of the spores”.
On to `O=C(CO)[C@@H](O)[C@H](O)[C@H](O)CO` [D-fructose], for which, in assay [1], the “Germination of spores (decrease in relative OD580)” value is reported as “None”. For the same molecule, the “Germination (DPA release) with D-fructose” value in assay [3] (10 mM D-fructose, spores not treated with L-alanine) is “did not germinate”. In addition, in assay [4] (10 mM D-fructose, spores not treated with L-alanine (0 mM)), the “Germination (DPA release) in presence of D-fructose” value is on record as “did not germinate”.
Regarding `C[C@H](N)C(=O)O` [L-alanine], the “Germination of spores (decrease in relative OD580)” value in assay [1] is recorded as “None”; in assay [2], “caused germination of the spores”; in assay [5] (substance alone, 3 mM, heat-activated spores, 37° C., 70 minutes), “could cause germination”. Besides, the “Germination as a result of the L-alanine treatment, determined by microscopy” value in assay [3] (1 mM L-alanine for 24 hours at 4° C., before D-fructose) is given as “No germination”. In addition, the “Germination (DPA release) when D-fructose was added” value in assay [3] (L-alanine 24 hours, washed out prior to addition of D-fructose) is “did not germinate”; in assay [3] (spores treated with 1 mM L-alanine for 24 hours, then 10 mM D-fructose), “germinated”. The “Germination due to the L-alanine treatment, determined by microscopy” value in assay [4] (0.5-10.0 mM L-alanine for 24 hours at 4° C., before D-fructose) is reported as “no germination”. In addition, the “Extent of germination versus amount of L-alanine” value in assay [4] (0.5 to 10 mM L-alanine pretreatment, then 10 mM D-fructose) is given as “increased as the amount of L-alanine increased”. The “Germination (DPA release) on addition of D-fructose” value in assay [4] (spores treated with L-alanine 24 hours, then D-fructose (10 mM) at time 0) is on record as “caused germination”. The Molecules causing germination entry in assay [5] (strain SB3615, each substance 3 mM) is reported as “L-alanine”.
With `[Br-].[K+]` [KBr], the Gmax in assay [6] (heat-activated spores, 0.5 mM KBr overnight at 4° C. before full germinant solution) was 92%; in assay [6] (heat-activated spores, 0.5 mM KBr overnight at 22° C. before full germinant solution), 65%; in assay [6] (heat-activated spores, 3.0 mM KBr overnight at 4° C. before full germinant solution), 123%; in assay [6] (heat-activated spores, 3.0 mM KBr overnight at 22° C. before full germinant solution), 65%; in assay [6] (heat-activated spores, 10.0 mM KBr overnight at 4° C. before full germinant solution), 85%; in assay [6] (heat-activated spores, 10.0 mM KBr overnight at 22° C. before full germinant solution) it was 61%. The Gmax in assay [6] (native spores, 0.5 mM KBr overnight at 4° C. before full germinant solution) is 24%; in assay [6] (native spores, 0.5 mM KBr overnight at 22° C. before full germinant solution), 62%; in assay [6] (native spores, 3.0 mM KBr overnight at 4° C. before full germinant solution) it was 31%; in assay [6] (native spores, 3.0 mM KBr overnight at 22° C. before full germinant solution) it was 96%; in assay [6] (native spores, 10.0 mM KBr overnight at 4° C. before full germinant solution), 29%; in assay [6] (native spores, 10.0 mM KBr overnight at 22° C. before full germinant solution), 103%. The “Gmax as compared to spores not pretreated with KBr” value in assay [6] (heat-treated spores, at 22° C., 0.5, 3.0, or 10.0 mM KBr) is on record as “decreased”. For the same molecule, the “Percentage of spores that germinated (Gmax) as compared to spores not pretreated with KBr” value in assay [6] (native or heat-treated spores, at 4° C., 3.0 or 10.0 mM KBr) was “increased”. Besides, the “Tlag as compared to spores not pretreated with KBr” value in assay [6] (some samples: 4° C. native spores 3.0 or 10.0 mM KBr, 22° C. heat-activated spores 0.5 mM KBr) is given as “different”.
